# Experimental data reported in patent US6534480B2, “Compositions for increasing energy in vivo” (Bioenergy Inc., priority 1999, dated 2003).
# Experiments:
# [1] = Cycle sprint power output in healthy fit subjects (Ribose Athlete Study); format: in vivo, human; details: for Mean Power Per Kilogram, Average / Peak Power Per Kilogram, Average / Total Power Per Kilogram, Average: average of sessions 1-6
# Procedure: Four healthy, fit subjects in the age range 24 to 26 years of age were tested. The group was selected to be homogeneous regarding fitness level, gender and mean age with no known metabolic, neuronal, endocrine or cardiopulmonary disorders. All were capable of or had experience with cycling. The study protocol included four phases: (1) an initial baseline phase consisting of no exercise session; (2) a loading phase including three days of administration of either D-ribose or placebo (glucose) three times per day; (3) a training phase of three days employing exercise sessions characterized by serial (N=6) bouts of short (10 second) high-intensity cycle sprints at 7% body mass resistance with 50 second rest periods between sprints twice per day (morning and afternoon), and (4) a recovery phase for a period of 48 hours after the final training session. FIG. 1 is a diagram of a single cycle sprint bout. Two subjects were randomly selected for inclusion into the placebo or ribose group. Ribose or glucose was administered orally in a 250 ml iso-osmotic solution containing 10.0 grams of either ribose or placebo three times per day for three days preceding training (loading phase) and for three days during training (training phase). One-half liter isotonic electrolyte solution was given immediately post exercise and again 30 minutes later to avoid dehydration.
# [2] = Sprint power output and well-being in normal untrained subjects (planned); format: in vivo, human; details: 5 grams of D-ribose in 200 ml. of water after each sprint bout
# Excerpt: D-ribose, given immediately before and during exercise, can provide a benefit to those subjects who have not been previously trained. Four healthy, normal male volunteers will be tested for sprint power output on an exercycle, as for Example 2 above. Each subject will serve as their own control. Between the sprint bouts, the subjects will cycle slowly and continuously. Total test time will be one hour, with four sprint bouts during the test. Following the initial baseline test and following each sprint bout, the subjects will be given 5 grams of D-ribose in 200 ml. of water or a similar tasting placebo (glucose). Sprint power output will be tested 15 minutes after each ingesting of the test solutions. Each subject will undergo two sessions, one week apart, one with ribose and one with placebo, in randomized order. The placebo will be sweetened with glucose in order to be indistinguishable from the ribose solution.
# [3] = Treadmill test (Bruce protocol), single patient with stable coronary artery disease; format: in vivo, human
# Procedure: The patient was tested for treadmill performance. After two baseline treadmill tests, following the Bruce protocol, they received orally administered D-ribose (40 gm in three divided doses daily) for three days and completed a third treadmill test. […] In each test, this patient concluded the test due to shortness of breath, but experienced no angina.
# It is generally accepted that the product of heart rate and systemic pressure is a measure of myocardial function and energy level, with lower numbers indicating better myocardial function. As a result of the administration of ribose, average tolerated time on the treadmill increased.
# [4] = Self administration of ribose, subject with low energy after systemic bacterial infection; format: in vivo, human
# Excerpt: An example of a subject having no overt disease who benefitted from self-administered ribose is a person. They had adhered to a strict weekly exercise regimen most of their life until sustaining a systemic bacterial infection, which required admission to the intensive care unit for one month and rehabilitation for an additional month. Their cardiovascular and pulmonary systems were predominantly affected during and following their illness and function had not recovered to its previous levels, or to their satisfaction, after one year.
# Following convalescence, they have attempted to resume an exercise regimen, which involves running on a treadmill four days a week and lifting weights for two days a week. The runs were restricted to short intervals. Following the daily exercises, they have continuously experienced fatigue to the point of exhaustion and has required frequent naps. The patient began self-administering oral D-ribose at two doses per day, 4-5 grams per dose. Within seven days, they testified that their “pep” and exercise tolerance increased. For the first time since their illness, they are able to run as long as 30 minutes on the treadmill. They still experience a Degree of fatigue, but has been able to discontinue the naps after exercise. They continue on the daily oral doses of ribose, along with their scheduled exercises and feels a continuing improvement in their energy level after four weeks of ribose administration.
# [5] = oral, humans; cited from earlier work
# [6] = cited from earlier work
# [7] = ribose group mean, sprint session 1
# [8] = ribose group mean, sprint session 2
# [9] = ribose group mean, sprint session 3
# [10] = ribose group mean, sprint session 4
# [11] = ribose group mean, sprint session 5
# [12] = ribose group mean, sprint session 6
smiles,measurement,setting,value
"O=C[C@H](O)[C@H](O)[C@H](O)CO [Ribose, D-ribose]","Mean Power Per Kilogram, Average",[1]; ribose group mean,8.2 Watts
same,"Peak Power Per Kilogram, Average",[1]; ribose group mean,9.6 Watts
same,"Total Power Per Kilogram, Average",[1]; ribose group mean,81.6
same,Peak Power Per Kilogram,[1]; [7],8.9 Watts
same,Total Power Per Kilogram,[1]; [7],79.3
same,Mean Power Per Kilogram,"[1]; ribose group mean, sprint session 1, 10.0 grams oral three times per day",7.8 Watts
same,Mean Power Per Kilogram,[1]; [8],8.4 Watts
same,Peak Power Per Kilogram,[1]; [8],9.7 Watts
same,Total Power Per Kilogram,[1]; [8],83.3
same,Mean Power Per Kilogram,[1]; [9],8.5 Watts
same,Peak Power Per Kilogram,[1]; [9],10.0 Watts
same,Total Power Per Kilogram,[1]; [9],84.2
same,Mean Power Per Kilogram,[1]; [10],8.3 Watts
same,Peak Power Per Kilogram,[1]; [10],9.9 Watts
same,Total Power Per Kilogram,[1]; [10],82.8
same,Mean Power Per Kilogram,[1]; [11],8.2 Watts
same,Peak Power Per Kilogram,[1]; [11],9.8 Watts
same,Total Power Per Kilogram,[1]; [11],81.8
same,Mean Power Per Kilogram,[1]; [12],7.8 Watts
same,Peak Power Per Kilogram,[1]; [12],9.3 Watts
same,Total Power Per Kilogram,[1]; [12],77.9
same,"Mean Power Per Kilogram, average relative to placebo (100.0%)",[1]; ribose group vs placebo group,109.0%
same,"Peak Power Per Kilogram, average relative to placebo (100.0%)",[1]; ribose group vs placebo group,109.9%
same,"Total Power Per Kilogram, average relative to placebo (100.0%)",[1]; ribose group vs placebo group,109.5%
same,increase in performance,"[1]; ribose vs placebo, Tables II to IV",9%
same,"Mean Power Per Kilogram, Average",[1]; subject 2R,7.5 Watts
same,"Peak Power Per Kilogram, Average",[1]; subject 2R,8.8 Watts
same,"Total Power Per Kilogram, Average",[1]; subject 2R,75.1
same,Mean Power Per Kilogram,"[1]; subject 2R, sprint session 1",6.9 Watts
same,Peak Power Per Kilogram,"[1]; subject 2R, sprint session 1",7.9 Watts
same,Total Power Per Kilogram,"[1]; subject 2R, sprint session 1",71.9
same,Mean Power Per Kilogram,"[1]; subject 2R, sprint session 2",7.5 Watts
same,Peak Power Per Kilogram,"[1]; subject 2R, sprint session 2",8.8 Watts
same,Total Power Per Kilogram,"[1]; subject 2R, sprint session 2",74.7
same,Mean Power Per Kilogram,"[1]; subject 2R, sprint session 3",7.8 Watts
same,Peak Power Per Kilogram,"[1]; subject 2R, sprint session 3",9.2 Watts
same,Total Power Per Kilogram,"[1]; subject 2R, sprint session 3",77.1
same,Mean Power Per Kilogram,"[1]; subject 2R, sprint session 4",7.6 Watts
same,Peak Power Per Kilogram,"[1]; subject 2R, sprint session 4",9.0 Watts
same,Total Power Per Kilogram,"[1]; subject 2R, sprint session 4",75.6
same,Mean Power Per Kilogram,"[1]; subject 2R, sprint session 5",7.9 Watts
same,Peak Power Per Kilogram,"[1]; subject 2R, sprint session 5",9.4 Watts
same,Total Power Per Kilogram,"[1]; subject 2R, sprint session 5",78.1
same,Mean Power Per Kilogram,"[1]; subject 2R, sprint session 6",7.4 Watts
same,Peak Power Per Kilogram,"[1]; subject 2R, sprint session 6",8.7 Watts
same,Total Power Per Kilogram,"[1]; subject 2R, sprint session 6",73.4
same,"Mean Power Per Kilogram, Average",[1]; subject 3R,8.8 Watts
same,"Peak Power Per Kilogram, Average",[1]; subject 3R,10.3 Watts
same,"Total Power Per Kilogram, Average",[1]; subject 3R,88.0
same,Mean Power Per Kilogram,"[1]; subject 3R, sprint session 1",8.7 Watts
same,Peak Power Per Kilogram,"[1]; subject 3R, sprint session 1",9.8 Watts
same,Total Power Per Kilogram,"[1]; subject 3R, sprint session 1",86.8
same,Mean Power Per Kilogram,"[1]; subject 3R, sprint session 2",9.2 Watts
same,Peak Power Per Kilogram,"[1]; subject 3R, sprint session 2",10.6 Watts
same,Total Power Per Kilogram,"[1]; subject 3R, sprint session 2",91.9
same,Mean Power Per Kilogram,"[1]; subject 3R, sprint session 3",9.1 Watts
same,Peak Power Per Kilogram,"[1]; subject 3R, sprint session 3",10.7 Watts
same,Total Power Per Kilogram,"[1]; subject 3R, sprint session 3",91.3
same,Mean Power Per Kilogram,"[1]; subject 3R, sprint session 4",9.0 Watts
same,Peak Power Per Kilogram,"[1]; subject 3R, sprint session 4",10.7 Watts
same,Total Power Per Kilogram,"[1]; subject 3R, sprint session 4",90.0
same,Mean Power Per Kilogram,"[1]; subject 3R, sprint session 5",8.5 Watts
same,Peak Power Per Kilogram,"[1]; subject 3R, sprint session 5",10.1 Watts
same,Total Power Per Kilogram,"[1]; subject 3R, sprint session 5",85.4
same,Mean Power Per Kilogram,"[1]; subject 3R, sprint session 6",8.2 Watts
same,Peak Power Per Kilogram,"[1]; subject 3R, sprint session 6",9.9 Watts
same,Total Power Per Kilogram,"[1]; subject 3R, sprint session 6",82.5
same,subjective feeling of well being,[2],subjectively higher feeling of well being
same,sprint power output after ribose vs placebo,[2]; sustained mild exercise,higher power output
same,"Rate-pressure product, % change","[3]; 0 (rest), Test vs average of two baselines",−9.55%
same,"Rate-pressure product (beats per minute times systolic blood pressure mm Hg), Test","[3]; 0 (rest), oral D-ribose 40 gm in three divided doses daily for three days","9,177"
same,"Rate-pressure product (beats per minute times systolic blood pressure mm Hg), Test","[3]; 3 minutes on treadmill, after D-ribose","15,272"
same,"Rate-pressure product, % change","[3]; 3 minutes, Test vs average of two baselines",−1.60%
same,"Rate-pressure product (beats per minute times systolic blood pressure mm Hg), Test","[3]; 6 minutes on treadmill, after D-ribose","20,592"
same,"Rate-pressure product, % change","[3]; 6 minutes, Test vs average of two baselines",−15.68%
same,"Rate-pressure product (beats per minute times systolic blood pressure mm Hg), Test","[3]; 9 minutes on treadmill, after D-ribose","25,356"
same,"Rate-pressure product, % change","[3]; 9 minutes, Test vs average of two baselines",−9.87%
same,"Tolerated time, % change",[3]; Test vs average of two baselines,5.06%
same,patient's subjective report,[3]; during ribose administration,feeling more energetic
same,"Tolerated time, Test","[3]; treadmill, Bruce protocol, after D-ribose",540.00 s
same,adverse effects,[4]; four weeks of oral ribose administration,no adverse effects
same,time able to run on the treadmill,"[4]; oral D-ribose two doses per day, 4-5 grams per dose",≤ 30 min
same,"""pep"" and exercise tolerance","[4]; within seven days of oral D-ribose, two doses per day, 4-5 grams per dose",increased
same,treatment of cardiac insufficiency and hypovolemic shock,[5],effective
same,symptoms of MAD-deficient patients,[6]; MAD-deficient patients,relieved
same,effect in normal volunteers,[6]; normal volunteers,no beneficial effect
